Experimental findings from patent publication US11566007B2, “Ras inhibitors” (Revolution Medicines, Inc., priority 2019, dated 2023) are described below.

The target of one experiment is KRAS WT (Homo sapiens (Human), UniProt P01116+P62937). As to the kind of experiment: Ras-Raf (BRAF RBD) disruption / FRET / MOA assay, KRAS WT. To be noted: read-out: IC50* KRAS WT FRET data. Format: biochemical. The method in brief:
(§1)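 Ras:RAF disruption was scored as a fall in TR-FRET ratio relative to DMSO. Compound ranged in 3-fold steps over 10 points from 30 μM final; incubation ran 3 h at 25° C, detection antibodies a further 1.5 h. Reported as IC50.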

In a further experiment the target is KRAS G12S (Homo sapiens (Human), UniProt P01116+P62937, G12S). As to the kind of experiment: Ras-Raf (BRAF RBD) disruption / FRET / MOA assay, KRAS G12S. To be noted: Ras-Raf disruption/FRET/MOA assay; class symbols; read-out: KRAS G12S FRET data IC50. Format: biochemical. The method, boiled down: as §1
For another experiment, the target named is KRAS Q61H (Homo sapiens (Human), UniProt P01116+P62937, Q61H). As to the kind of experiment: Ras-Raf (BRAF RBD) disruption / FRET / MOA assay, KRAS Q61H. Format: biochemical. To be noted: Ras-Raf disruption/FRET/MOA assay; class symbols; read-out: KRAS Q61H FRET data IC50. The method, boiled down: (§2)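 TR-FRET disruption of nucleotide-loaded Ras binding to BRAF RBD via compound-driven ternary complex with cyclophilin A. Compound as 10-point 3-fold series from 30 μM final, 3 h at 25° C, then anti-His Eu-W1024 (10 nM) and anti-GST allophycocyanin (50 nM) for 1.5 h. IC50 from decreased FRET ratio versus DMSO.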

For the next experiment, the target named is KRAS G13D (Homo sapiens (Human), UniProt P01116+P62937, G13D). As to the kind of experiment: Ras-Raf (BRAF RBD) disruption / FRET / MOA assay, KRAS G13D. Format: biochemical. To be noted: read-out: IC50* KRAS G13D FRET data. The method, boiled down: as §1
In the next experiment the target is NRAS Q61R (Homo sapiens (Human), UniProt P01111+P62937, Q61R). As to the kind of experiment: Ras-Raf (BRAF RBD) disruption / FRET / MOA assay, NRAS Q61R. Format: biochemical. The note with it: NRAS Q61R; Ras-Raf disruption/FRET/MOA assay; read-out: IC50* NRAS Q61R FRET data. The method, boiled down: as §2
A further experiment addresses K-Ras G13C (Homo sapiens (Human), UniProt P01116+P62937, G13C). As to the kind of experiment: Ras-Raf (BRAF RBD) disruption / FRET / MOA assay, KRAS G13C. Format: biochemical. The note with it: KRAS G13C; Ras-Raf disruption/FRET/MOA assay; read-out: IC50* KRAS G13C FRET data. The method in brief: as §1
Experiment [1] has as its system NCI-H358 cells (K-Ras G12C). As to the kind of experiment: Potency assay: pERK in NCI-H358 cells. Format: cell-based, human. To be noted: Homo sapiens, NCI-H358; H358 KRAS G12C; read-out: pERK EC50. The method, boiled down: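 Compounds are dosed as ten 3-fold dilutions from a 10 mM DMSO stock, in duplicate, and left on cells for 4 h at 37 °C, 5% CO2. Phospho-ERK1/2 is then quantified by AlphaLISA SureFire Ultra or In-Cell Western, and IC50 is derived from a 4-parameter sigmoid against log concentration.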

Chain of KRAS G13D (P01116-2 other isoform, or with tags, fused parts or gaps G13D): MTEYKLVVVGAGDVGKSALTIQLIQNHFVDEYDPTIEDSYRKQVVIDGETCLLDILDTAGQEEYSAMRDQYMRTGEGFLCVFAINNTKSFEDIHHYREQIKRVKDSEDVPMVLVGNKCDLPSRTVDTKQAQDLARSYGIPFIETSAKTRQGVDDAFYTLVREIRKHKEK
Chain of KRAS G13D (P62937 whole entry): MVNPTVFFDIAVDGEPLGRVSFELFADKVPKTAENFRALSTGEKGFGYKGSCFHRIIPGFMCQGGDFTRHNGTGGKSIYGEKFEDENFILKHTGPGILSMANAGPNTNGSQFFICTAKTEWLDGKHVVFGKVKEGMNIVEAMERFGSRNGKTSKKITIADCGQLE
Chain of K-Ras G13C (P01116-2 other isoform, or with tags, fused parts or gaps G13C): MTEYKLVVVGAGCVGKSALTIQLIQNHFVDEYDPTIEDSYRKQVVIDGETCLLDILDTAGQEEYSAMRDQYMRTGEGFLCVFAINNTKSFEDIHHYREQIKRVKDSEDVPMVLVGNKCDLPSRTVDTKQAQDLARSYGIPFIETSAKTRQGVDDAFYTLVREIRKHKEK
Chain of K-Ras G13C (P62937 whole entry): as the sequence (P62937 whole entry) above
Chain of KRAS WT (P01116-2 other isoform, or with tags, fused parts or gaps): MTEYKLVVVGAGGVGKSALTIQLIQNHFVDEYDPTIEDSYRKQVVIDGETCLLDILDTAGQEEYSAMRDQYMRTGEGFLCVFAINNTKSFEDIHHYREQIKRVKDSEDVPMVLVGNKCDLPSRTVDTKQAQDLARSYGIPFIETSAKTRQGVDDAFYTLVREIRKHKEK
Chain of KRAS WT (P62937 whole entry): as the sequence (P62937 whole entry) above
Chain of NRAS Q61R (P01111 whole entry Q61R): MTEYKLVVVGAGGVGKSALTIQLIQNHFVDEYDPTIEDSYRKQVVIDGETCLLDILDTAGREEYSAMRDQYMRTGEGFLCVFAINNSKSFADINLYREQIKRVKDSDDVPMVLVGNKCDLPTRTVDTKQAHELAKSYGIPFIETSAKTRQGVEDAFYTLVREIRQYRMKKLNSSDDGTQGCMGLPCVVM
Chain of NRAS Q61R (P62937 whole entry): as the sequence (P62937 whole entry) above
Chain of KRAS G12S (P01116-2 other isoform, or with tags, fused parts or gaps G12S): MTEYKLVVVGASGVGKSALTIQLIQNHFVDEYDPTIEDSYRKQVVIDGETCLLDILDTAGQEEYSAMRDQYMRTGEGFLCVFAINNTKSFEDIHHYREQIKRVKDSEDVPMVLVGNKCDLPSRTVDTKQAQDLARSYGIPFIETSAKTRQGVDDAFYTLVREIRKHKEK
Chain of KRAS G12S (P62937 whole entry): as the sequence (P62937 whole entry) above
Chain of KRAS Q61H (P01116-2 other isoform, or with tags, fused parts or gaps Q61H): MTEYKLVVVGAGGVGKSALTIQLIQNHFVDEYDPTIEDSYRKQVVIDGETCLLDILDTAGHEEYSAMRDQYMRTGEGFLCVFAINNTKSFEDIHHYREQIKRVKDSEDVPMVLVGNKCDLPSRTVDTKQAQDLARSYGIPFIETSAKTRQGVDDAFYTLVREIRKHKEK
Chain of KRAS Q61H (P62937 whole entry): as the sequence (P62937 whole entry) above

As a reminder, the IC50 is the midpoint of a concentration-inhibition curve. Broadly, the EC50 is the concentration that produces a half-maximal response. As to `C=CC(=O)N1CCO[C@H]2CN(C(=O)N(C)[C@H](C(=O)N[C@H]3Cc4nc(cs4)-c4ccc5c(c4)c(c(-c4cccnc4[C@H](C)OC)n5CC)CC(C)(C)COC(=O)[C@@H]4CCCN(N4)C3=O)C(C)C)C[C@H]21` (atropisomer, axis not shown) [Example A706], the concentration for half-maximal inhibition (IC50) at KRAS WT lay in the range of 1000 to 10000 nM; on KRAS G12S, 1000 to 10000 nM; on KRAS Q61H, 100 to 1000 nM; at KRAS G13D it was 1000 to 10000 nM; on NRAS Q61R, 100 to 1000 nM; on K-Ras G13C it was 10 to 100 nM. In experiment [1], the EC50 was under 5000 nM.

With `C=CC(=O)N1CC[C@H](C(=O)N(C)[C@H](C(=O)N[C@H]2Cc3cccc(c3)-c3ccc4c(c3)c(c(-c3cccnc3[C@H](C)OC)n4CC(F)(F)F)CC(C)(C)COC(=O)[C@@H]3CCCN(N3)C2=O)C(C)C)C1` (atropisomer, axis not shown) [Example A332], the IC50 fell in the range of 1000 to 10000 nM at KRAS WT; 1000 to 10000 nM on KRAS G12S; 100 to 1000 nM at KRAS Q61H; 1000 to 10000 nM on KRAS G13D; 1000 to 10000 nM on NRAS Q61R; 100 to 1000 nM on K-Ras G13C. For the same compound, the EC50 in experiment [1] was under 5000 nM.

Turning to `CCn1c(-c2cccnc2[C@H](C)OC)c2c3cc(ccc31)-c1cc(CF)cc(c1)C[C@H](NC(=O)[C@@H](COC1CN(C(=O)C#CC(C)(C)N(C)C)C1)C(C)C)C(=O)N1CCC[C@H](N1)C(=O)OCC(C)(C)C2` (atropisomer, axis not shown) [Example A587], the half-maximal inhibitory concentration (IC50) at KRAS WT, at KRAS G12S, at KRAS Q61H, on KRAS G13D, at NRAS Q61R and at K-Ras G13C was over 10000 nM each time. Moreover, the concentration for a half-maximal effect (EC50) in experiment [1] was under 5000 nM.

As to `CO[C@@H](C)c1ncccc1-c1c2c3cc(ccc3n1CC(F)(F)F)-c1cc(CF)cc(c1)C[C@H](NC(=O)[C@@H](COC1CN(C(=O)C#CC(C)(C)N(C)C)C1)C(C)C)C(=O)N1CCC[C@H](N1)C(=O)OCC(C)(C)C2` (atropisomer, axis not shown) [Example A589], the concentration for half-maximal inhibition (IC50) was 1000 to 10000 nM on KRAS WT; over 10000 nM on KRAS G12S; 1000 to 10000 nM on KRAS Q61H; over 10000 nM at KRAS G13D; over 10000 nM at NRAS Q61R; 1000 to 10000 nM on K-Ras G13C. The concentration for a half-maximal effect (EC50) in experiment [1] is under 5000 nM.

For the compound `C=C(OC)C(=O)N1CC2(CCN(C(=O)N(C)[C@H](C(=O)N[C@H]3Cc4nc(cs4)-c4ccc5c(c4)c(c(-c4cccnc4[C@H](C)OC)n5CC)CC(C)(C)COC(=O)[C@@H]4CCCN(N4)C3=O)C(C)C)CC2)C1` (atropisomer, axis not shown) [Example A681], the IC50 was in the range of 100 to 1000 nM at KRAS WT; 100 to 1000 nM on KRAS G12S; 10 to 100 nM on KRAS Q61H; 100 to 1000 nM at KRAS G13D; 100 to 1000 nM on NRAS Q61R; 100 to 1000 nM on K-Ras G13C. Further, in experiment [1], the EC50 was under 5000 nM.

`CCn1c(-c2cccnc2[C@H](C)OC)c2c3cc(ccc31)-c1csc(n1)C[C@H](NC(=O)[C@H](C(C)C)N(C)C(=O)N1C[C@H]3CN(C(=O)C#CC(C)(C)N(C)C)CC[C@H]31)C(=O)N1CCC[C@H](N1)C(=O)OCC(C)(C)C2` (atropisomer, axis not shown) [Example A624]: the half-maximal inhibitory concentration (IC50) at KRAS WT, at KRAS G12S, at KRAS Q61H, at KRAS G13D, on NRAS Q61R and at K-Ras G13C was 100 to 1000 nM in each case. The concentration for a half-maximal effect (EC50) in experiment [1] was under 5000 nM.

With `CCn1c(-c2cccnc2[C@H](C)OC)c2c3cc(ccc31)-c1cccc(c1)C[C@H](NC(=O)[C@H](C(C)C)N1CO[C@@]3(CCN(C(=O)/C=C/CN(C)C)C3)C1=O)C(=O)N1CCC[C@H](N1)C(=O)OCC(C)(C)C2` (atropisomer, axis not shown) [Example A558], the IC50 was in the range of 100 to 1000 nM on KRAS WT; 100 to 1000 nM at KRAS G12S; 100 to 1000 nM at KRAS Q61H; 100 to 1000 nM at KRAS G13D; 1000 to 10000 nM at NRAS Q61R; 100 to 1000 nM at K-Ras G13C. In experiment [1], the EC50 was under 5000 nM.

As to `C=CC(=O)N1CC2(CCN2C(=O)N(C)[C@H](C(=O)N[C@H]2Cc3nc(n(C)n3)-c3ccc4c(c3)c(c(-c3cccnc3[C@H](C)OC)n4CC)CC(C)(C)COC(=O)[C@@H]3CCCN(N3)C2=O)C(C)C)C1` (atropisomer, axis not shown) [Example A612], the 50% inhibitory concentration (IC50) at KRAS WT was 100 to 1000 nM; on KRAS G12S, 100 to 1000 nM; on KRAS Q61H, 10 to 100 nM; on KRAS G13D, 100 to 1000 nM; on NRAS Q61R, 10 to 100 nM; on K-Ras G13C it was 100 to 1000 nM. Moreover, the concentration for a half-maximal effect (EC50) in experiment [1] is under 5000 nM.

Take `C=CC(=O)N1CCC(F)(C(=O)N(C)[C@H](C(=O)N[C@H]2Cc3nc(cs3)-c3ccc4c(c3)c(c(-c3cccnc3[C@H](C)OC)n4CC)CC(C)(C)COC(=O)[C@@H]3CCCN(N3)C2=O)C(C)C)CC1` (atropisomer, axis not shown) [Example A700]: the IC50 on KRAS WT, at KRAS G12S, on KRAS Q61H, on KRAS G13D, at NRAS Q61R and on K-Ras G13C was 100 to 1000 nM each time. In experiment [1], the EC50 is under 5000 nM.
